Like-named read-outs stand apart in the source and are kept apart here.
Columns and labels:
HEK293 cells = assay: HEK293 VLCFA-LPC IC50 determination (13C-labeled C26:0 LPC by UHPLC/MS); type: cell-based, human; conditions: Homo sapiens
Outline: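 Suspension HEK293 cells (final 0.5 million/mL after mixing with equal volume) incubated 48 hours with compound plus 13C-acetate (1.0 mg/mL in added media), shaking at 37° C. Lipids extracted with hexane/isopropanol or methanol, C13:0 LPC standard. UHPLC/MS of 13C-labeled C26:0 LPC (638.500/104.100 m/z); IC50 by four-parameter fit.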

[1] = Metabolic intrinsic clearance in mouse hepatocytes; type: in vitro ADME, CD-1 mouse; conditions: CD-1, cryopreserved hepatocytes in suspension, pH 7.5, 0.5 million cells/mL, incubation for 4 hours
Method: The metabolic intrinsic clearance (CLint) of Compound 87 was determined in human, monkey, dog, rat, and mouse hepatocytes. Cryopreserved human hepatocytes (Lot Hue50c), monkey hepatocytes (cynomolgus; Lot Cy328), dog hepatocytes (beagle, Lot Db235), rat hepatocytes (Sprague Dawley; NNH), and mouse hepatocytes (CD-1; Lot Mc522) were obtained from ThermoFisher (Paisley, UK). In separate experiments, compound 87 (1 μM) was incubated with hepatocytes from each species (0.5 million cells/mL, suspension) in Dulbecco's Modified Eagle's Medium (DMEM) supplemented with 4-(2-Hydroxyethyl)piperazine-1-ethanesulfonic acid (HEPES, 9 mM) and fructose (2.2 mM) (pH 7.5). Samples were quenched with acetonitrile and analyzed by LC-MS/MS. The mean CLint for Compound 87 in human, monkey, dog, rat, and mouse hepatocytes after incubation for 4 hours was determined to be ≤2.5, ≤2.5, 7.2, 23.6 and 10.7 μL/min/million cells. Based on these date, Compound 87 was low to moderately metabolized in hepatocytes in mouse, rat, dog, monkey, and human, and the rank order of stability at […] was approximately human>monkey>dog>mouse>rat. […] The metabolic stability of Compound 87 was not expected.

- hepatocyte CLint at 1 μM [1]: 10.7 µL/min/1e6 cells
SMILES: O=C(Nc1ccn(-c2ccnc(F)c2)n1)C1(c2ccccc2F)CC1 [Compound 87, 1-(2-fluorophenyl)-N-[1-(2-fluoro-4-pyridyl)pyrazol-3-yl]cyclopropanecarboxamide]
- IC50 (HEK293 cells; HEK293, 48 h, HEK293, half maximal reduction in C26:0 LPC, about 48 hours, read-out: IC50): 8 nM
- IC50 (HEK293 cells; HEK293, HEK293 cells, average of one or more replicates, read-out: Average HEK293 IC50): 13 nM

From US20180251431A1 (VERTEX PHARMACEUTICALS INCORPORATED, priority 2016, published 2018)
